Reference: publication PMC5908839 (Scientific Reports, 2018)

Biological target: T1, AioX (Pseudorhizobium banfieldiae, UniProt L0NML6)
T1 construct: 304 amino acid residues; His-tag removed; SeMet-labelled
T1 sequence (L0NML6 27-304): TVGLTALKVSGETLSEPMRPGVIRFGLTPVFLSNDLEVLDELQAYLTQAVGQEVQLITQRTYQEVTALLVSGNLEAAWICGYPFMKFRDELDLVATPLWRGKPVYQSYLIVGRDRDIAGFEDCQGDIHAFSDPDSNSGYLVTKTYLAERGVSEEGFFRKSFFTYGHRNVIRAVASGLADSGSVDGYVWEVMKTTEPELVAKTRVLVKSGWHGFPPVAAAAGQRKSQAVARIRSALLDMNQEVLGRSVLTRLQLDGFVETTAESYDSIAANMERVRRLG
Assay: X-ray crystal structure ([…] Å; phosphate from the crystallisation conditions); no binding detected by ITC

For `O=P(O)(O)O` [phosphate], the Kd was greater than 2000 µM.
